Reference: patent US20220151236A1, “NOVEL OXADIAZOLE COMPOUNDS FOR CONTROLLING OR PREVENTING PHYTOPATHOGENIC FUNGI” (PI INDUSTRIES LTD., priority 2019, published 2022)

How the values were obtained:
[1] = system: Phakopsora pachyrhizi; test: Phakopsora pachyrhizi Test on Soybean (preventive activity, greenhouse); assay type: in vivo; settings: preventive spray on young Soybean plants, inoculated one day after treatment, rated 3, 7, 10 and 15 days after application, read-out: Efficacy (% control), disease severity compared to the untreated check
In short: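 Preventive greenhouse test: young soybean plants sprayed with compound in 2% DMSO/acetone plus emulsified water at stated rates, inoculated one day later with 2×10^5 P. pachyrhizi conidia, held at 22-24° C and 80-90% RH. Disease severity (0-100%) rated 3, 7, 10 and 15 days after application; % control relative to untreated plants.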

[2] = system: Colletotrichum capsici; test: Colletotrichum capsici (Anthracnose): radial mycelial growth on potato dextrose agar; assay type: cell-based; settings: Colletotrichum truncatum, 168 h, 25° C., 60% relative humidity, seven days, read-out: control (radial growth compared to the untreated check)
[3] = system: Botrytis cinerea; test: Botrytis cinerea (Gray Mold): radial mycelial growth on potato dextrose agar; assay type: cell-based; settings: 300 ppm, 22° C., 90% relative humidity, seven days
[4] = system: Pyricularia Oryzae; test: microbe, parasite or virus in culture; assay type: cell-based; settings: 168 h, read-out: control (radial growth compared to the untreated check)

Structure (SMILES)	pest or weed control at 500 ppm [1]	inhibition of growth at 300 ppm [2]	control (radial growth compared to the untreated check) [3]	inhibition of growth at 300 ppm [4]
COCCNC(=O)c1cn2cc(-c3noc(C(F)(F)F)n3)ccc2n1 [Compound 65, N-(2-methoxyethyl)-6-(5-(trifluoromethyl)-1,2,4-oxadiazol-3-yl)imidazo[1,2-a]pyridine-2-carboxamide]	≥ 70%	≥ 70%	–	–
CC(C)CSCc1cn2cc(-c3noc(C(F)(F)F)n3)ccc2n1 [Compound 112, 3-(2-((isobutylthio)methyl)imidazo[1,2-a]pyridin-6-yl)-5-(trifluoromethyl)-1,2,4-oxadiazole]	≥ 70%	≥ 70%	–	–
O=C(c1cn2cc(-c3noc(C(F)(F)F)n3)ccc2n1)N1CCC1 [Compound 69, azetidin-1-yl(6-(5-(trifluoromethyl)-1,2,4-oxadiazol-3-yl)imidazo[1,2-a]pyridin-2-yl)methanone]	≥ 70%	≥ 70%	–	–
CCOCc1cn2cc(-c3noc(C(F)(F)F)n3)ccc2n1 [Compound 80, 3-(2-(ethoxymethyl)imidazo[1,2-a]pyridin-6-yl)-5-(trifluoromethyl)-1,2,4-oxadiazole]	–	–	≥ 70%	≥ 70%
